Patent US20250205286A1, “COMPOSITIONS, REAGENTS, AND METHODS FOR TREATING PITT-HOPKINS SYNDROME” (Vitro Biopharma, Inc., priority 2022, published 2025)

Test system: Hsp70 secretion from UC-MSCs
Experiment: Hsp70 secretion from cultured UC-MSCs exposed to LiCl (immunoassay)
Format: cell-based, human
Settings: 200 micromolar LiCl; medium collected 96 hours later; p<0.05
Procedure: FIG. 7 is a graph showing the secretion of heat shock protein 70 (Hsp70) from cultured UC-MSCs (e.g., ALLORX STEM CELLS®) and the effects of increasing concentrations of lithium chloride (LiCl) on Hsp70 secretion.
UC-MSCs were plated at 5,000 cells/cm^2 in T-25 flasks and cultured until confluence was 80-90%. The cells were then exposed to the LiCl concentrations shown on the x axis and the medium was collected 96 hours later and assayed by immunoassay for Hsp70. […] Since Hsp70 mediates cellular protection as a chaperone molecule and through antiapoptotic mechanisms (refs), its enhanced secretion from MSCs (possible through inclusion in exosomes Ref) may reflect mechanisms of stem cell activation by GSK-3p inhibition in conjunction with HDAC inhibition (e.g., see U.S. application Ser. No. 17/239,513 which is incorporated by reference). This effect is a possible mode of action of the therapy proposed by the present disclosure.

Structure (SMILES): [Cl-].[Li+] [LiCl, lithium chloride]
- secretion of Hsp70: significant increased secretion
